Test results from patent US11571403B2, “Methods for the treatment of non-alcoholic steatohepatitis” (Eiger Biopharmaceuticals, Inc., priority 2016, dated 2023).

Key:
[1] = system: STAM mouse model for NASH; experiment: Fibrosis area by Sirius red staining, STAM mouse NASH model (Example 1); type: in vivo; conditions: 7 to 9 weeks of age
Excerpt: The STAM™ mouse is a model for NASH created by a combination of chemical and dietary interventions in C57BL/6 mice that manifest NASH at about 8 weeks, which progresses to fibrosis at about 12 weeks and then progresses to HCC at about 16 weeks. See, Saito et al., Sci. Rep. 2015, 5:12466.
In the study, the control groups were as follows: (i) Untreated Disease Control—a group of STAM mice injected with streptozotocin (STZ, Sigma-Aldrich, USA) at 2 days old, and fed a high fat diet (HFD, 57 kcal % fat, Cat #HFD32, CLEA Japan, Japan) starting at 4 weeks old; and (ii) Positive Control—a group of STAM mice treated with telmisartan (10 mg/kg QD from 7 to 9 weeks). In addition to these control groups, test groups of STAM mice treated with a low dose of ubenimex (5 mg/kg ubenimex BID from 7 to 9 weeks) or a high dose of ubenimex (25 mg/kg BID from 7 to 9 weeks), were included in the study. The low dose is equivalent to a human dose of 30 mg BID. The high dose is equivalent to a human dose of 150 mg BID. The viability, clinical signs and behavior were monitored daily, including body weight, signs of toxicity, moribundity and mortality. The mice were maintained in a SPF facility under controlled conditions of temperature (23±2° C.), humidity (45±10%), lighting (12-hour artificial light and dark cycles; light from 8:00 to 20:00) and air exchange. A high pressure was maintained in the experimental room to prevent contamination of the facility. The mice were housed in TPX cages (CLEA Japan) with a maximum of 4 mice per case.
All groups of mice were sacrificed at 9 weeks. Once sacrificed, the body weight of each mouse was recorded. The liver of each mouse was removed and weighed. The liver-to-body weight ratio was determined for each mouse. Blood serum levels of CK-18, ALT, and liver triglycerides were determined for each mouse. The livers were then sectioned and stained with hematoxylin and eosin (“HE”) stain, as well as Sirius red staining, to determine liver steatosis (ballooning) and fibrosis, respectively.

[2] = system: STAM model of NASH fibrosis; experiment: NAFLD Activity Score by HE staining, STAM model of NASH with fibrosis (Example 3); type: in vivo, mouse; conditions: for Steatosis score 0, number of mice: score 0 = <5%; for Hepatocyte ballooning score 0, number of mice: score 0 = None; for Steatosis score 1, number of mice: score 1 = 5-33%; for Hepatocyte ballooning score 1, number of mice: score 1 = Few balloon cells; for Lobular inflammation score 2, number of mice: score 2 = 2-4 foci/200x; for Lobular inflammation score 3, number of mice: score 3 = >4 foci/200x; for Steatosis score 2, number of mice: score 2 = >33-66%; for Hepatocyte ballooning score 2, number of mice: score 2 = Many cells/prominent ballooning
Protocol: (§1) Ubenimex or telmisartan was administered orally in a volume at 10 mL/kg. Ubenimex was administered at a dose of 5 mg/kg once daily or twice daily. Telmisartan was administered at a dose of 5 mg/kg once daily.
For HE staining, sections were cut from paraffin blocks of liver tissue prefixed in Bouin's solution and stained with Lillie-Mayer's hematoxylin (Muto Pure Chemicals Co., Ltd., Japan) and eosin solution (Wako Pure Chemical Industries, Ltd., Japan). NAFLD Activity Score (NAS) was calculated according to the criteria of Kleiner (Kleiner et al., Hepatology, 2005, 41:1313). To visualize collagen deposition, Bouin's fixed liver sections were stained using picro-Sirius red solution (Waldeck, Germany). For quantitative analysis of fibrosis area, bright field images of Sirius red-staining sections were captured around the central vein using a digital camera (DFC295; Leica, Germany) at 200-fold magnification, and the positive areas in 5 fields/section were measured using ImageJ software (National Institutes of Health, USA).
Statistical tests: Statistical analyses were performed using Bonferroni Multiple Comparison Test on GraphPad Prism 6 (GraphPad Software Inc., USA). P values <0.05 were considered statistically significant. A trend or tendency was assumed when a one-tailed t-test returned P values <0.1. Results were expressed as mean±SD.
(§2) Study groups: The following study groups were used. Group 1 (Vehicle): 8 NASH mice were orally administered vehicle (RO water) in a volume of 10 mL/kg twice daily from 6 to 11 weeks of age. Group 2 (Ubenimex QD for 5 weeks): 8 NASH mice were orally administered vehicle supplemented with ubenimex at a dose of 5 mg/kg once daily from 6 to 11 weeks of age. Group 3 (Ubenimex BID for 5 weeks): 8 NASH mice were orally administered vehicle supplemented with ubenimex at a dose of 5 mg/kg twice daily from 6 to 11 weeks of age. Group 4 (Ubenimex BID for 2 weeks): 8 NASH mice were orally administered vehicle supplemented with ubenimex at a dose of 5 mg/kg twice daily from 9 to 11 weeks of age. Group 5 (Telmisartan for 5 weeks): 8 NASH mice were orally administered pure water supplemented with telmisartan at a dose of 5 mg/kg once daily from 6 to 11 weeks of age.

[3] = system: STAM model of NASH fibrosis; experiment: Biochemistry: plasma ALT and liver triglyceride, STAM model of NASH with fibrosis (Example 3); type: in vivo, mouse
Protocol: as §1
For plasma biochemistry, blood was collected in polypropylene tubes with anticoagulant (Novo-Heparin, Mochida Pharmaceutical Co. Ltd., Japan) and centrifuged at 1,000×g for 15 minutes at 4° C. The supernatant was collected and stored at −80° C. until use. Plasma ALT level was measured by FUJI DRI-CHEM 7000 (Fujifilm, Japan).
Liver total lipid-extracts were obtained by Folch's method (Folch et al., J. Biol Chem, 1957, 226:497). Liver samples were homogenized in chloroform-methanol (2:1 v/v) and incubated overnight at room temperature. After washing with chloroform-methanol-water (8:4:3 v/v/v), the extracts were evaporated to dryness and dissolved in isopropanol. Liver triglyceride content was measured by Triglyceride E-test (Wako Pure Chemical Industries, Ltd., Japan).
as §2

[4] = telmisartan 5 mg/kg QD oral, 6 to 11 weeks of age
[5] = ubenimex 5 mg/kg BID oral, 6 to 11 weeks of age
[6] = ubenimex 5 mg/kg BID oral, 9 to 11 weeks of age
[7] = ubenimex 5 mg/kg QD oral, 6 to 11 weeks of age

CCCc1nc2c(C)cc(-c3nc4ccccc4n3C)cc2n1Cc1ccc(-c2ccccc2C(=O)O)cc1 [Telmisartan, telmisartan]
Sirius red-positive area (fibrosis area, mean ± SD) ([1]; telmisartan 10 mg/kg QD): 0.71 ± 0.15%
Steatosis score 0, number of mice [2, 4]: 1
Lobular inflammation score 0, number of mice ([2]; score 0 = No foci, telmisartan 5 mg/kg QD oral, 6 to 11 weeks of age): 1
Hepatocyte ballooning score 0, number of mice [2, 4]: 3
Steatosis score 1, number of mice [2, 4]: 5
Hepatocyte ballooning score 1, number of mice [2, 4]: 3
Lobular inflammation score 2, number of mice [2, 4]: 3
Lobular inflammation score 3, number of mice [2, 4]: 2
NAS (mean ± SD) [2, 4]: 3.3 ± 1.0
Liver triglyceride (mean ± SD) [3, 4]: 24.6 ± 8.4 mg/g liver
Plasma ALT (mean ± SD) [3, 4]: 36 ± 11 U/L

CC(C)C[C@H](NC(=O)[C@@H](O)[C@H](N)Cc1ccccc1)C(=O)O [Ubenimex, (2S)-2-[[(2S,3R)-3-amino-2-hydroxy-4-phenylbutanoyl]amino]-4-methylpentanoic acid]
Sirius red-positive area (fibrosis area, mean ± SD) ([1]; ubenimex 5 mg/kg BID): 0.80 ± 0.16%
Sirius red-positive area (fibrosis area, mean ± SD) ([1]; ubenimex 25 mg/kg BID): 1.05 ± 0.14%
Steatosis score 0, number of mice [2, 5]: 1
Steatosis score 0, number of mice [2, 6]: 1
Hepatocyte ballooning score 0, number of mice [2, 5]: 5
Hepatocyte ballooning score 0, number of mice [2, 6]: 4
Hepatocyte ballooning score 0, number of mice [2, 7]: 2
Steatosis score 1, number of mice [2, 5]: 4
Steatosis score 1, number of mice [2, 6]: 4
Steatosis score 1, number of mice [2, 7]: 6
Lobular inflammation score 1, number of mice ([2]; score 1 = <2 foci/200x, ubenimex 5 mg/kg QD oral, 6 to 11 weeks of age): 1
Hepatocyte ballooning score 1, number of mice [2, 6]: 1
Hepatocyte ballooning score 1, number of mice [2, 7]: 4
Lobular inflammation score 2, number of mice [2, 5]: 2
Lobular inflammation score 2, number of mice [2, 6]: 4
Lobular inflammation score 2, number of mice [2, 7]: 3
Steatosis score 2, number of mice [2, 5]: 1
Steatosis score 2, number of mice [2, 6]: 1
Hepatocyte ballooning score 2, number of mice [2, 5]: 1
Hepatocyte ballooning score 2, number of mice [2, 6]: 1
Lobular inflammation score 3, number of mice [2, 5]: 4
Lobular inflammation score 3, number of mice [2, 6]: 2
Lobular inflammation score 3, number of mice [2, 7]: 2
NAS (mean ± SD) [2, 5]: 4.0 ± 1.7
NAS (mean ± SD) [2, 6]: 3.8 ± 1.0
NAS (mean ± SD) [2, 7]: 3.8 ± 0.8
Liver triglyceride (mean ± SD) [3, 5]: 59.6 ± 21.4 mg/g liver
Plasma ALT (mean ± SD) [3, 5]: 52 ± 21 U/L
Liver triglyceride (mean ± SD) [3, 6]: 62.0 ± 33.5 mg/g liver
Plasma ALT (mean ± SD) [3, 6]: 47 ± 24 U/L
Liver triglyceride (mean ± SD) [3, 7]: 58.6 ± 24.4 mg/g liver
Plasma ALT (mean ± SD) [3, 7]: 85 ± 64 U/L
